{"source": "paper PMC3896228", "about": "“Physalin H from Solanum nigrum as an Hh signaling inhibitor blocks GLI1–DNA-complex formation” (Beilstein Journal of Organic Chemistry, 2014)", "key": {"[1]": {"test_system": "GLI1 transcriptional activity", "settings": "cited from earlier work"}, "C3H10T1/2 [2]": {"test_system": "C3H10T1/2", "assay": "Cytotoxicity test against C3H10T1/2 normal cells", "type": "cell-based", "settings": "normal cell line", "excerpt": "(§1) […]. […] […]. […] […]."}, "[3]": {"assay": "Cytotoxicity test against C3H10T1/2 normal cells", "type": "cell-based", "settings": "mouse, C3H10T1/2 cells (normal cell line)", "excerpt": "as §1"}, "[4]": {"test_system": "assay cells (HaCaT cells expressing exogenous GLI1)", "assay": "Cytotoxicity against reporter assay cells (cell viability)", "excerpt": "(§2) We evaluated the Hh inhibitory activity of the isolated compounds by using a previously described method. […] In addition we always checked the cytotoxicity of the compounds against the assay cells, because a decrease in the number of living cells also correlates with a reduced luciferase activity. […] Further, we examined the cytotoxicity against cancer cells, human pancreatic (PANC1) and prostate (DU145) cancer cell lines, in which Hh signaling is aberrantly activated (Table 1).\n(§3) The NMR measurements were carried out with JEOL ECP400 and ECP600 spectrometers in deuterated solvents and the residual proton chemical shift was taken as an internal standard. MS data were obtained with a JEOL JMS-T100LP (ESI). IR spectra were measured by using the ATR (attenuated total reflection) method on a Jasco FT-IR 230 spectrophotometer. […] The procedures for the GLI1-mediated transcriptional activity assay, Western blot analysis and cytotoxicity test were as previously described. The GST–GLI1 protein was produced as previously described."}, "DU145": {"test_system": "DU145", "assay": "Cytotoxicity test against DU145", "type": "cell-based", "excerpt": "as §1"}, "[5]": {"test_system": "GLI1 transcriptional activity", "assay": "cells", "type": "cell-based", "settings": "for IC50: read-out: GLI1 transcriptional inhibition, IC50", "excerpt": "In addition, we evaluated the Hh inhibitory activity by assessing the cytotoxicity against cancer cells and the expression of Hh-related proteins.\nas §2, §3"}, "PANC1 [6]": {"test_system": "PANC1", "assay": "Cytotoxicity test against PANC1", "type": "cell-based", "settings": "Homo sapiens, PANC-1", "excerpt": "as §1"}, "C3H10T1/2 [7]": {"test_system": "C3H10T1/2", "settings": "cited from earlier work; for survival of C3H10T1/2 cells: normal cell line; for IC50: read-out: Cytotoxicity, IC50 C3H10T1/2, C3H10T1/2"}, "PANC1 [8]": {"test_system": "PANC1", "settings": "read-out: Cytotoxicity, IC50 PANC1; cited from earlier work"}, "[9]": {"target": "T1, GLI1–DNA complex (GST–GLI1 171-515aa, GLI1–BS) (Homo sapiens, UniProt P08151)", "T1 construct": "GST–GLI1 (171-515aa); made in house; host or cells: Escherichia coli", "T1 sequence (P08151 171-515)": "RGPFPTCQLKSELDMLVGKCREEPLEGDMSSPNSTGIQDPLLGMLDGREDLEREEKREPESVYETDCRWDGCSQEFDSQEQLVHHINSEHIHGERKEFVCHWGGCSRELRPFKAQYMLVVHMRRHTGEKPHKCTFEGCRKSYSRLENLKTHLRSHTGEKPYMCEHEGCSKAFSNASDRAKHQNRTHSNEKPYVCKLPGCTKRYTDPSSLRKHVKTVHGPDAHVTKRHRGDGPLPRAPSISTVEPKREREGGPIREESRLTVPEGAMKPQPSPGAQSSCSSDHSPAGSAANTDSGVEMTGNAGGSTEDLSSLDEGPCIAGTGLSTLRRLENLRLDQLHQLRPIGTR", "type": "binding", "settings": "EMSA, 200 μM"}, "BCL2 [10]": {"test_system": "BCL2", "assay": "Western blot analysis of BCL2 in DU145 cells", "type": "cell-based, human", "settings": "3.0 μM, DU145 cancer cells", "excerpt": "as §1\n(§4) Figure 4 Inhibition of protein expression by compound 1. (A) Western blot analysis of PTCH, BCL-2 protein levels in GLI1-overexpressing HaCaT cells after treatment with 1. (B) Western blot analysis of PTCH, BCL-2 protein levels in DU145 cells after treatment with 1."}, "PTCH [11]": {"test_system": "PTCH", "assay": "Western blot analysis of PTCH in GLI1-overexpressing HaCaT cells", "type": "cell-based", "settings": "3.0 μM, HaCaT cells expressing exogenous GLI1, Western blot", "excerpt": "as §1, §4"}, "BCL2 [12]": {"test_system": "BCL2", "assay": "Western blot analysis of BCL2 in GLI1-overexpressing HaCaT cells", "type": "cell-based", "settings": "3.0 μM, HaCaT cells expressing exogenous GLI1, Western blot", "excerpt": "as §1, §4"}, "PTCH [13]": {"test_system": "PTCH", "assay": "Western blot analysis of PTCH in DU145 cells", "type": "cell-based, human", "settings": "3.0 μM, DU145 cancer cells", "excerpt": "as §1, §4"}, "[14]": {"settings": "Homo sapiens, DU-145; read-out: Cytotoxicity, IC50 DU145"}, "[15]": {"settings": "read-out: GLI1 transcriptional inhibition, IC50"}}, "note": "Where two headings read alike, the source gives them in different places.", "data": [{"molecule": "C=C(C)[C@@H]1CC[C@]2(C(=O)O)CC[C@]3(C)[C@H](CC[C@@H]4[C@@]5(C)[C@H](C=O)[C@@H](O)C(C)(C)[C@@H]5CC[C@]43C)[C@@H]12", "note": "[colubrinic acid, reference compound]", "values": [{"measurement": "IC50", "setting": "[1]; read-out: Hh inhibition IC50", "result": 38000, "unit": "nM"}]}, {"molecule": "CC12C(=O)CC=CC1=CCC1C2CCC2(O)C(=O)OC3(C)C4CC5(C)C(COC16OC23C5C6=O)C(=O)O4", "note": "(centres unmarked) [isophysalin B (4), isophysalin B]", "values": [{"measurement": "survival of C3H10T1/2 cells", "setting": "C3H10T1/2 [2]", "result": "not significantly affected"}, {"measurement": "IC50", "setting": "[3]", "result": "> 12", "unit": "µM"}, {"measurement": "cytotoxicity against assay cells", "setting": "[4]", "result": "low cytotoxicity"}, {"measurement": "IC50", "setting": "DU145; [14]", "result": "> 12", "unit": "µM"}, {"measurement": "IC50", "setting": "[5]", "result": 4.2, "unit": "µM"}, {"measurement": "IC50", "setting": "PANC1 [6]", "result": 12, "unit": "µM"}]}, {"molecule": "C[C@]12C(=O)C=CCC1=CC[C@@H]1[C@@H]2CC[C@@]2(O)C(=O)O[C@@]3(C)[C@H]4C[C@]5(C)[C@@H](CO[C@@]16O[C@]23[C@H]5C6=O)C(=O)O4", "note": "[physalin B (6), physalin B]", "values": [{"measurement": "survival of C3H10T1/2 cells", "setting": "C3H10T1/2 [7]", "result": "not significantly affected"}, {"measurement": "IC50", "setting": "C3H10T1/2 [7]", "result": 17, "unit": "µM"}, {"measurement": "IC50", "setting": "[1]; [15]", "result": 620, "unit": "nM"}, {"measurement": "IC50", "setting": "PANC1 [8]", "result": 5.3, "unit": "µM"}]}, {"molecule": "C=C1C(=O)OC2CC1(C)C1C(=O)C3(O)OC14C(O)(CCC1C3CC=C3CC=CC(=O)C31C)C(=O)OC24C", "note": "(centres unmarked) [physalin B (6]", "values": [{"measurement": "IC50", "setting": "[1]; [15]", "result": 620, "unit": "nM"}]}, {"molecule": "C[C@@]12C[C@H]3OC(=O)[C@@H]1CO[C@]14O[C@]5([C@H]2C1=O)[C@@](O)(CC[C@H]1[C@H]4C[C@H]2O[C@]24CC=CC(=O)[C@]14C)C(=O)O[C@@]35C", "note": "[physalin F (5), physalin F]", "values": [{"measurement": "survival of C3H10T1/2 cells", "setting": "C3H10T1/2 [7]", "result": "not significantly affected"}, {"measurement": "IC50", "setting": "C3H10T1/2 [7]", "result": 15, "unit": "µM"}, {"measurement": "IC50", "setting": "[1]; [15]", "result": 660, "unit": "nM"}, {"measurement": "IC50", "setting": "PANC1 [8]", "result": 2.7, "unit": "µM"}]}, {"molecule": "CC12CC3OC(=O)C1COC14OC5(C2C1=O)C(O)(CCC1C4CC2OC24CC=CC(=O)C14C)C(=O)OC35C", "note": "(centres unmarked) [physalin F (5]", "values": [{"measurement": "IC50", "setting": "[1]; [15]", "result": 660, "unit": "nM"}]}, {"molecule": "C[C@]12C(=O)C=CC=C1[C@@H](O)C[C@@H]1[C@@H]2CC[C@@]2(O)C(=O)O[C@@]3(C)[C@H]4C[C@]5(C)[C@@H](CO[C@@]16O[C@]23[C@H]5C6=O)C(=O)O4", "note": "[physalin G (2), physalin G]", "values": [{"measurement": "IC50", "setting": "DU145; Homo sapiens, DU-145, read-out: Cytotoxicity, IC50 DU145", "result": "> 12", "unit": "µM"}, {"measurement": "formation of GLI1–DNA complex", "setting": "[9]", "result": "did not inhibit"}, {"measurement": "IC50", "setting": "[5]", "result": 47.1, "unit": "µM"}]}, {"molecule": "CC12C(=O)C=CC=C1C(O)CC1C2CCC2(O)C(=O)OC3(C)C4CC5(C)C(COC16OC23C5C6=O)C(=O)O4", "note": "(centres unmarked) [physalin G (2]", "values": [{"measurement": "IC50", "setting": "[5]", "result": 47.1, "unit": "µM"}]}, {"molecule": "CC12CC3OC(=O)C1COC14OC5(C2C1=O)C(O)(CCC1C4CC(O)C2(Cl)CC=CC(=O)C12C)C(=O)OC35C", "note": "(centres unmarked) [physalin H (1), physalin H]", "values": [{"measurement": "survival of C3H10T1/2 cells", "setting": "C3H10T1/2 [2]", "result": "not significantly affected"}, {"measurement": "IC50", "setting": "[3]", "result": "> 6", "unit": "µM"}, {"measurement": "expression of BCL2", "setting": "BCL2 [10]", "result": "decreased the expression"}, {"measurement": "expression of PTCH", "setting": "PTCH [11]", "result": "inhibited the expression"}, {"measurement": "IC50", "setting": "DU145; [14]", "result": 6.8, "unit": "µM"}, {"measurement": "expression of BCL2", "setting": "BCL2 [12]", "result": "inhibited the expression"}, {"measurement": "expression of PTCH", "setting": "PTCH [13]", "result": "only slightly affected"}, {"measurement": "IC50", "setting": "PANC1 [6]", "result": 5.7, "unit": "µM"}]}, {"molecule": "CC12CC3OC(=O)C1COC14OC5(C2C1=O)C(O)(CCC1C4CC(O)C24C=CC(OO2)C(=O)C14C)C(=O)OC35C", "note": "(centres unmarked) [physalin K (3), physalin K]", "values": [{"measurement": "Hh inhibition", "setting": "[5]", "result": "did not show Hh inhibition at all"}]}, {"molecule": "COC(=O)[C@]1(C)CCC[C@]2(C)c3cc4occc4c(C)c3C[C@@H](OC(C)=O)[C@@H]12", "note": "[taepeenin D, reference compound]", "values": [{"measurement": "IC50", "setting": "[1]; read-out: Hh inhibition IC50", "result": 1600, "unit": "nM"}]}, {"molecule": "C=CC(C)(O)CC[C@@]1(C)C2=C([C@H](OC(C)=O)[C@H](OC(C)=O)[C@H]1C)C(C)(C)CCC2", "note": "(some centres unmarked) [vitetrifolin D, reference compound]", "values": [{"measurement": "IC50", "setting": "[1]; read-out: Hh inhibition IC50", "result": 20200, "unit": "nM"}]}]}
